According to patent publication US11945813B2, “5-substituted 4-amino-1H-benzo[c][1,2,6]thiadiazine 2,2-dioxides and formulations and uses thereof” (Firmenich Incorporated, priority 2018, dated 2024):

Target: T1, T1R2/T1R3 taste receptor (Homo sapiens, UniProt Q8TE23)
T1 sequence (Q8TE23 20-839): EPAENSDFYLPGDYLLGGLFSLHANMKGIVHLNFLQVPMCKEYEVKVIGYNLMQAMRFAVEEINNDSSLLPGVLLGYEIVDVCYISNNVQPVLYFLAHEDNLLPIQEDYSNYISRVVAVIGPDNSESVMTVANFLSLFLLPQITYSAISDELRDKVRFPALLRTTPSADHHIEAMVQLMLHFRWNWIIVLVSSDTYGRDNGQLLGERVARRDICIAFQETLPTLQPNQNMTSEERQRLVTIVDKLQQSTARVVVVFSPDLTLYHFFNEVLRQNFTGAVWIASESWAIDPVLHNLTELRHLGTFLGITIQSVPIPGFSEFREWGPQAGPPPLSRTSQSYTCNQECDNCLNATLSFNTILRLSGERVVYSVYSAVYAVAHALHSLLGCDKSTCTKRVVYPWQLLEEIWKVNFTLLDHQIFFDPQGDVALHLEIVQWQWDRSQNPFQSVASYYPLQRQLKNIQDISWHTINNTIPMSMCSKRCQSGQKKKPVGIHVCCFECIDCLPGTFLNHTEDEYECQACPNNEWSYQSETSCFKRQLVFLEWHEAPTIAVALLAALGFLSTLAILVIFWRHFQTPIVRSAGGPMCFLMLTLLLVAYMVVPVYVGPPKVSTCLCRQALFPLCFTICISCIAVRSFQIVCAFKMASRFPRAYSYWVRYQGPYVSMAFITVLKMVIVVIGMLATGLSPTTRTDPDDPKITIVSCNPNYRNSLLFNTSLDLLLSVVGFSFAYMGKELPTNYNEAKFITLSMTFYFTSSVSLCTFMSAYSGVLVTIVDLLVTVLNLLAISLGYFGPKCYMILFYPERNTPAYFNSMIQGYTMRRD
T1 sequence (Q7RTX0 21-852 partner): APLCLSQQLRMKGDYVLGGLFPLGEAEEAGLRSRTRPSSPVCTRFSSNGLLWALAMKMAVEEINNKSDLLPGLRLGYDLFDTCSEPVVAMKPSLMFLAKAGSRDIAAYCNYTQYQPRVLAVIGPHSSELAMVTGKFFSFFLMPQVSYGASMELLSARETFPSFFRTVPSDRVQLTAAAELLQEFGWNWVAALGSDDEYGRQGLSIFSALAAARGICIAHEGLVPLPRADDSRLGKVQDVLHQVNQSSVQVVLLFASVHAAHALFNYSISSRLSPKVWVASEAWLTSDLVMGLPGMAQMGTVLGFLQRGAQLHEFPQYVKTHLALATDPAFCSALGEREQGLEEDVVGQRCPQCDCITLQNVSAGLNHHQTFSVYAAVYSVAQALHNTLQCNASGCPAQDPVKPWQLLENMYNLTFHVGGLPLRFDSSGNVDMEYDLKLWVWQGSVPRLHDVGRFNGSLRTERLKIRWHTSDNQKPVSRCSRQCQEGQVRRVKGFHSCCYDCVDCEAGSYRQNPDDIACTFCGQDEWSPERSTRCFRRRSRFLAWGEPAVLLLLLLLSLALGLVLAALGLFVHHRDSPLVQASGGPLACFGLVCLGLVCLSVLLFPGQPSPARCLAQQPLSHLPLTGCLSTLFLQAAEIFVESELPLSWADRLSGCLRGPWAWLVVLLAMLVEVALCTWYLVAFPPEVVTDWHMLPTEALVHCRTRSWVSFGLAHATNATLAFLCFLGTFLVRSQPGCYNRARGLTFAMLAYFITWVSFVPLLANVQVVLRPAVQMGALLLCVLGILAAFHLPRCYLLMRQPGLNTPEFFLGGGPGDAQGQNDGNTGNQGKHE
Experiment: Receptor-based assay: sweetener EC50 alone and with test compound (enhancement ratio)
Assay type: cell-based
Conditions: for Sucralose Enhancement EC50 Ratio: sweetener sucralose; for Sucrose Enhancement EC50 Ratio: sweetener sucrose; for Fructose Enhancement EC50 Ratio: sweetener fructose
How it was run: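 Sucrose, sucralose or fructose EC50 measured on human T1R2/T1R3, alone and with 3, 10 or 50 μM test compound. Enhancement is the EC50 ratio without/with compound, binned A >20, B 10-20, C >1 to <10.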

Row | SMILES | Sucralose Enhancement EC50 Ratio (10 μM test compound) | Sucrose Enhancement EC50 Ratio (3 μM test compound) | Sucrose Enhancement EC50 Ratio (10 μM test compound) | Sucrose Enhancement EC50 Ratio (50 μM test compound) | Fructose Enhancement EC50 Ratio (50 μM test compound) | Sucralose Enhancement EC50 Ratio (50 μM test compound) | Fructose Enhancement EC50 Ratio (10 μM test compound)
1 | NC1=NS(=O)(=O)Nc2cccc(OC[C@H]3CCCN(c4ccc(C(=O)NCCO)cn4)C3)c21 [Compound 503] | A (An “A” value indicates an enhancement ratio of greater than 20) | C (A “C” value indicates an enhancement ratio greater than 1 and less than 10) | C (A “C” value indicates an enhancement ratio greater than 1 and less than 10) | C (A “C” value indicates an enhancement ratio greater than 1 and less than 10) | – | – | –
2 | COCCNC(=O)c1ccc(N2CCC[C@H](COc3cccc4c3C(N)=NS(=O)(=O)N4)C2)nc1 [Compound 504] | A (An “A” value indicates an enhancement ratio of greater than 20) | C (A “C” value indicates an enhancement ratio greater than 1 and less than 10) | C (A “C” value indicates an enhancement ratio greater than 1 and less than 10) | C (A “C” value indicates an enhancement ratio greater than 1 and less than 10) | C (A “C” value indicates an enhancement ratio greater than 1 and less than 10) | A (An “A” value indicates an enhancement ratio of greater than 20) | –
3 | CN(C)CCNC(=O)c1ccc(N2CCC[C@H](COc3cccc4c3C(N)=NS(=O)(=O)N4)C2)nc1 [Compound 505] | C (A “C” value indicates an enhancement ratio greater than 1 and less than 10) | C (A “C” value indicates an enhancement ratio greater than 1 and less than 10) | C (A “C” value indicates an enhancement ratio greater than 1 and less than 10) | C (A “C” value indicates an enhancement ratio greater than 1 and less than 10) | C (A “C” value indicates an enhancement ratio greater than 1 and less than 10) | A (An “A” value indicates an enhancement ratio of greater than 20) | –
4 | CC(C)NC(=O)c1ccc(N2CCC[C@H](COc3cccc4c3C(N)=NS(=O)(=O)N4)C2)nc1 [Compound 506] | A (An “A” value indicates an enhancement ratio of greater than 20) | C (A “C” value indicates an enhancement ratio greater than 1 and less than 10) | C (A “C” value indicates an enhancement ratio greater than 1 and less than 10) | C (A “C” value indicates an enhancement ratio greater than 1 and less than 10) | – | A (An “A” value indicates an enhancement ratio of greater than 20) | –
5 | NC1=NS(=O)(=O)Nc2cccc(OC[C@H]3CCCN(c4ccc(C(=O)NC5CC5)cn4)C3)c21 [Compound 507] | A (An “A” value indicates an enhancement ratio of greater than 20) | C (A “C” value indicates an enhancement ratio greater than 1 and less than 10) | C (A “C” value indicates an enhancement ratio greater than 1 and less than 10) | C (A “C” value indicates an enhancement ratio greater than 1 and less than 10) | C (A “C” value indicates an enhancement ratio greater than 1 and less than 10) | A (An “A” value indicates an enhancement ratio of greater than 20) | –
6 | NC1=NS(=O)(=O)Nc2cccc(OC[C@H]3CCCN(c4ccc(C(=O)NC5CCCC5)cn4)C3)c21 [Compound 508] | B (A “B” value indicates an enhancement ratio from 10 to 20) | C (A “C” value indicates an enhancement ratio greater than 1 and less than 10) | C (A “C” value indicates an enhancement ratio greater than 1 and less than 10) | C (A “C” value indicates an enhancement ratio greater than 1 and less than 10) | C (A “C” value indicates an enhancement ratio greater than 1 and less than 10) | A (An “A” value indicates an enhancement ratio of greater than 20) | –
7 | NC1=NS(=O)(=O)Nc2cccc(OC[C@H]3CCCN(c4ccc(C(=O)NC5CCCCC5)cn4)C3)c21 [Compound 509] | B (A “B” value indicates an enhancement ratio from 10 to 20) | C (A “C” value indicates an enhancement ratio greater than 1 and less than 10) | C (A “C” value indicates an enhancement ratio greater than 1 and less than 10) | C (A “C” value indicates an enhancement ratio greater than 1 and less than 10) | C (A “C” value indicates an enhancement ratio greater than 1 and less than 10) | A (An “A” value indicates an enhancement ratio of greater than 20) | –
8 | CN(C)C(=O)c1ccc(N2CCC[C@H](COc3cccc4c3C(N)=NS(=O)(=O)N4)C2)nc1 [Compound 510] | B (A “B” value indicates an enhancement ratio from 10 to 20) | C (A “C” value indicates an enhancement ratio greater than 1 and less than 10) | C (A “C” value indicates an enhancement ratio greater than 1 and less than 10) | A (An “A” value indicates an enhancement ratio of greater than 20) | C (A “C” value indicates an enhancement ratio greater than 1 and less than 10) | A (An “A” value indicates an enhancement ratio of greater than 20) | –
9 | CCN(CC)C(=O)c1ccc(N2CCC[C@H](COc3cccc4c3C(N)=NS(=O)(=O)N4)C2)nc1 [Compound 511] | A (An “A” value indicates an enhancement ratio of greater than 20) | C (A “C” value indicates an enhancement ratio greater than 1 and less than 10) | C (A “C” value indicates an enhancement ratio greater than 1 and less than 10) | B (A “B” value indicates an enhancement ratio from 10 to 20) | C (A “C” value indicates an enhancement ratio greater than 1 and less than 10) | A (An “A” value indicates an enhancement ratio of greater than 20) | –
10 | NC1=NS(=O)(=O)Nc2cccc(OC[C@H]3CCCN(c4ccc(C(=O)N5CCCC5)cn4)C3)c21 [Compound 512] | A (An “A” value indicates an enhancement ratio of greater than 20) | C (A “C” value indicates an enhancement ratio greater than 1 and less than 10) | C (A “C” value indicates an enhancement ratio greater than 1 and less than 10) | C (A “C” value indicates an enhancement ratio greater than 1 and less than 10) | C (A “C” value indicates an enhancement ratio greater than 1 and less than 10) | A (An “A” value indicates an enhancement ratio of greater than 20) | –
11 | NC1=NS(=O)(=O)Nc2cccc(OC[C@H]3CCCN(c4ccc(C(=O)N5CCCCC5)cn4)C3)c21 [Compound 513] | A (An “A” value indicates an enhancement ratio of greater than 20) | C (A “C” value indicates an enhancement ratio greater than 1 and less than 10) | C (A “C” value indicates an enhancement ratio greater than 1 and less than 10) | C (A “C” value indicates an enhancement ratio greater than 1 and less than 10) | C (A “C” value indicates an enhancement ratio greater than 1 and less than 10) | A (An “A” value indicates an enhancement ratio of greater than 20) | C (A “C” value indicates an enhancement ratio greater than 1 and less than 10)
